# What was measured:
# human 17βHSD type 3 = molecular target: T1, human 17βHSD type 3 (Homo sapiens, UniProt P37058); assay: Measurement of enzyme activity of human 17βHSD type 3; type: biochemical; details: supernatant of transformed 293 cells as enzyme source
# T1 construct: A full-length cDNA encoding human 17βHSD type 3 used in the pharmacological test of the present invention; expressed in transfected cells; host or cells: 293 cells (human fetus kidney-derived); supernatant of disrupted cells
# T1 sequence (P37058 1-310): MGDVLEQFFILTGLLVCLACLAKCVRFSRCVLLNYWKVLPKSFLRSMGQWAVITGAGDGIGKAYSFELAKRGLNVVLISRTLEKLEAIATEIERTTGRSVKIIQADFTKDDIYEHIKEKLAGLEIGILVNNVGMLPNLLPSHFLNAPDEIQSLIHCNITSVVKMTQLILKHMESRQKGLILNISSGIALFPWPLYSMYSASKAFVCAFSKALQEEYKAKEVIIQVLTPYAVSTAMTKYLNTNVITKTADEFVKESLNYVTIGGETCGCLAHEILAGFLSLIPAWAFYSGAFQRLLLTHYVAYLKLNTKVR
# Experimental: A full-length cDNA encoding human 17βHSD type 3 used in the pharmacological test of the present invention was obtained by the PCR method using a cDNA derived from human testis as a template. The nucleotide sequence of the obtained cDNA was analyzed by the dideoxyterminator method, and the clone matched with the known human 17βHSD type 3 sequence (GenBank accession No. BC034281) was selected. Subsequently, human fetus kidney-derived cell line, 293 cells, were transformed with a plasmid containing the cDNA, and the cells were collected 24 hours later. The collected cells were then disrupted in a phosphate buffer solution containing 5% glycerol (500 μL per 100 mm-dish of a phosphate buffer solution (pH 7.4, 200 mM) containing 5% glycerol) and centrifuged (16000 rpm, 5 min, 4° C.), and the supernatant was used as an enzyme source.
# Enzyme activity was measured referring to Trevor M. Penning, et al., Biochem. J., 351, 67-77, (2000). Specifically, using a 100 mM potassium phosphate buffer (pH 6.0), (1) the enzyme purified in section 1 above at a final concentration of 10 μg/mL, (2) androstenedione at a final concentration of 300 nM, (3) NADPH at a final concentration of 200 μM, and (4) a test substance, were mixed to react at room temperature for 2 hours, and then the amount of testosterone produced was measured using DELFIA (registered trademark) Testosterone Reagents R050-201 (manufactured by PerkinElmer). The measurement was performed in accordance with the attached instructions. The amount of reduction of testosterone production in the presence of the compound was obtained as a relative value with respect to the amount of testosterone in the absence of the enzyme set at 0% and the amount of testosterone produced in the absence of the compound set at 100%. Then, IC50 values were calculated by the Logistic regression method.
# human 17βHSD type 5 = molecular target: T2, human 17βHSD type 5 (Homo sapiens, UniProt P42330); assay: Measurement of enzyme activity of human 17βHSD type 5 (testosterone production from androstenedione, DELFIA); type: biochemical; details: purified enzyme 10 μg/mL, androstenedione 300 nM, NADPH 200 μM, pH 6.0, room temperature, 2 hours
# T2 construct: A full-length cDNA encoding human 17βHSD type 5 used in the pharmacological test of the present invention; made in house; host or cells: Escherichia coli BL21
# T2 sequence (P42330 1-323): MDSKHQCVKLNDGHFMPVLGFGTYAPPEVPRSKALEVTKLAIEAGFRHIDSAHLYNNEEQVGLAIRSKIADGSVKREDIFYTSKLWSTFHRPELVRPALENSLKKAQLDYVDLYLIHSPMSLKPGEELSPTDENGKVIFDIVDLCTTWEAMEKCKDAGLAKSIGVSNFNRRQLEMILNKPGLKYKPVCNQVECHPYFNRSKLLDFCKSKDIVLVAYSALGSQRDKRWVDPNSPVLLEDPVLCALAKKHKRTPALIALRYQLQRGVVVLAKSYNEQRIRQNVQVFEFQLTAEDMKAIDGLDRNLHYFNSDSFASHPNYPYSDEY
# Excerpt: A full-length cDNA encoding human 17βHSD type 5 used in the pharmacological test of the present invention was obtained by the PCR method using a cDNA derived from a human lung cancer-derived cell line, A549 cells as a template. […] Escherichia coli BL21 was transformed with a plasmid containing the cDNA and cultured on a large scale. The proteins were purified by using GSTrapFF column (manufactured by Amersham) and PreScissionProtease (manufactured by Amersham). The purification method was carried out in accordance with the instructions attached to the GSTrapFF column.
# The measurement was performed in accordance with the attached instructions. The amount of reduction of testosterone production in the presence of the compound was obtained as a relative value with respect to the amount of testosterone in the absence of the enzyme set at 0% and the amount of testosterone produced in the absence of the compound set at 100%. Then, IC50 values were calculated by the Logistic regression method.
# [1] = molecular target: T3, LNCaP cells expressing human 17βHSD type 5 (Homo sapiens, UniProt P42330); assay: Cell growth capability using LNCaP cells expressing human 17βHSD type 5 (CellTiter-Glo); type: cell-based; details: androstenedione 10 nM, culturing for 7 days; read-out: LNCaP-17β5 IC50 (cell growth inhibitory activity)
# T3 sequence (P42330 1-323): T2 sequence (P42330 1-323)
# Experimental: LNCaP cells of the human prostate cancer-derived cell line were transformed with a plasmid containing the clone selected in section 1 above and then a cell line showing stable expression was obtained.
# 9000 cells/well of the transformed cells obtained in section 4 above were seeded in a 96-well plate and cultured overnight. Then, androstenedione, in conjunction with a test compound, was added thereto at a final concentration of 10 nM, followed by culturing for 7 days. After the culturing, number of the cells was counted using a CellTiter-Glo (registered trademark) Luminescent Cell Viability Assay (Promega). The CellTiter-Glo (registered trademark) Luminescent Cell Viability Assay is a reagent that measures the number of the cells by monitoring an intracellular ATP level from the luminescence intensity by luciferase. The experimental manipulation was carried out in accordance with the attached instructions. The cell growth inhibitory activity in the presence of a test compound was calculated as a relative value with respect to the number of the cells in the absence of androstenedione set at proliferation of 0%, and the number of the cells in the presence of androstenedione and in the absence of the test compound set at proliferation of 100%. Then, IC50 values were calculated by the Logistic regression method.
# 5α-reductase = details: patients with BPH, after administration; cited from earlier work
Compound,melting point,IC50 (human 17βHSD type 3),IC50 (human 17βHSD type 5),GI50 [1],concentration of DHT in the prostate relative to the concentration before the administration (5α-reductase),increase of concentration of testosterone in the prostate (5α-reductase)
"CC(C)(O)CC1CCN(C(=O)c2cc3ccccc3[nH]2)CC1 [Example 9, 1-[1-(1H-indol-2-ylcarbonyl)piperidin-4-yl]-2-methylpropan-2-ol]",153 to 163 °C,> 10 µM,130 nM,10 nM,–,–
"CC(C)(O)CC1CCN(C(=O)c2cc3cc([N+](=O)[O-])ccc3[nH]2)CC1 [Example 20, 2-methyl-1-{1-[(5-nitro-1H-indol-2-yl)carbonyl]piperidin-4-yl}propan-2-ol]",223 to 225 °C,> 10 µM,15 nM,29 nM,–,–
CC(C)(C)NC(=O)[C@H]1CC[C@H]2[C@@H]3CC[C@H]4NC(=O)C=C[C@]4(C)[C@H]3CC[C@]12C [finasteride],–,–,–,–,about 20%,4 fold
"Cc1ccc2[nH]c(C(=O)N3CCC(CC(C)(C)O)CC3)c(C)c2c1 [Example 17, 1-{1-[(3,5-dimethyl-1H-indol-2-yl)carbonyl]piperidin-4-yl}-2-methylpropan-2-ol]",166 to 168 °C,> 10 µM,390 nM,20 nM,–,–
"CC(C)(O)CC1CCN(C(=O)c2cc3cc(Cl)ccc3[nH]2)CC1 [Example 1, 1-{1-[(5-chloro-1H-indol-2-yl)carbonyl]piperidin-4-yl}-2-methylpropan-2-ol]",178 to 180 °C,> 10 µM,4.5 nM,8.9 nM,–,–
"CC(C)(O)CC1CCN(C(=O)c2cc3cc(O)ccc3[nH]2)CC1 [Example 15, 2-{[4-(2-hydroxy-2-methylpropyl)piperidin-1-yl]carbonyl}-1H-indol-5-ol]",212 to 219 °C,> 10 µM,15 nM,18 nM,–,–

# Now from value to compound, other results behind:
melting point,IC50 (human 17βHSD type 3),IC50 (human 17βHSD type 5),GI50 [1],Compound,concentration of DHT in the prostate relative to the concentration before the administration (5α-reductase),increase of concentration of testosterone in the prostate (5α-reductase)
163 to 165 °C,> 10 µM,21 nM,60 nM,"Cc1ccc2[nH]c(C(=O)N3CCC(CCO)CC3)cc2c1 [Example 22, 2-{1-[(5-methyl-1H-indol-2-yl)carbonyl]piperidin-4-yl}ethanol]",–,–
149 to 150 °C,> 10 µM,150 nM,24 nM,"Cc1ccc2[nH]c(C(=O)N3CCC(CC(C)(C)O)CC3)cc2c1 [Example 24, 2-methyl-1-{1-[(5-methyl-1H-indol-2-yl)carbonyl]piperidin-4-yl}propan-2-ol]",–,–
163 to 167 °C,> 10 µM,26 nM,31 nM,"CC(O)CC1CCN(C(=O)c2cc3ccccc3[nH]2)CC1 (stereo not drawn) [Example 30, 1-[1-(1H-indol-2-ylcarbonyl)piperidin-4-yl]propan-2-ol]",–,–
–,> 10 µM,–,12 nM,"COc1ccc2[nH]c(C(=O)N3CCC(CC(C)(C)O)CC3)cc2c1 [Example 25, 1-{1-[(5-methoxy-1H-indol-2-yl)carbonyl]piperidin-4-yl}-2-methylpropan-2-ol]",–,–

# — patent US8513422B2, “Piperidine derivative” (Astellas Pharma Inc., priority 2007, dated 2013)
